pEC50: −log10 of the molar value.
How the values were obtained:
[1] = system: Y receptor; test: Ussing chamber assay, PYY responses in mouse colon mucosa; details: PYY 10 nM; for Effect of antagonist on PYY responses: HS014 30 nM, 300 nM BIBO3304 plus 1 μM BIIE0246 in combination
Experimental: (§1) FIGS. 2A-2I contain data on the characterization of hMC4R PAMs Examples 1, 2, and 3. FIGS. 2A, 2B, and 2C show structures of Examples 1-3, and the affect of Examples 1-3 on the α-MSH dose-response curve at the hMC4R, as determined using the Lance assay. Insets show the concentration-response effect as a function of the fold shift on the α-MSH concentration response curve. […] After α-MSH responses had waned all tissues received PYY (10 nM) to verify residual Y receptor anti-secretory activity. Basal Isc values are indicated to the left of each trace from an exposed area of 0.14 cm^2. Vertical arrows show the timepoint at which α-MSH Isc responses were recorded. […] Each value is the mean±1 SEM with n values in parentheses. ** P<0.01 using one-way ANOVA with Dunnett's post-test.
(§2) GI tissue from adult (12-20 week old) male C57BL/6J mice were dissected free of overlying smooth muscle and mucosae placed between 2 halves of Ussing chambers exposing an area of 0.14 cm^2. Mucosae were bathed both sides with Krebs-Henseleit (KH) buffer of following composition (in mM: 117 NaCl, 24.8 NaHCO3, 4.7 KCl, 1.2 MgSO4, 1.2 KH2PO4, 2.5 CaCl2 and 11.1 D-glucose) aerated with 95% O2/5% CO2 (pH 7.4) and voltage-clamped at 0 mV as described in detail previously (Cox et al., 2001; Cox and Tough, 2002). MC4R activity in mouse colonic epithelium was then characterized. Mouse mucosae were pretreated with vehicle or PAM compounds, then with secretagogue, VIP (10 nM, basolateral), and once elevated ISC had reached its peak and was declining at a constant rate, α-MSH was added to the basolateral reservoir to determine responses.
(§3) ISC responses in μA are expressed as the mean±SEM per unit area (cm2). Single comparisons (using GraphPad Prism) were performed using Student's unpaired t-test while multiple comparisons utilized 1-way ANOVA with Dunnett's post test and P≤0.05 were considered statistically significant.

[2] = target: native L cell MC4R (Mus musculus (Mouse), UniProt P56450); test: Ussing chamber assay, α-MSH inhibition of VIP-elevated Isc in mouse colon mucosa; details: for Effect of antagonist on α-MSH inhibition of Isc potentiated by 1 μM Example 3: HS014 30 nM, 300 nM BIBO3304 plus 1 μM BIIE0246 in combination
Experimental: as §1, §2, §3

[3] = target: hMC4R (Homo sapiens (Human), UniProt P32245); test: LANCE cAMP assay, hMC4R PAM; assay type: cell-based
Experimental: Analysis of pharmacological properties of compounds was performed using the LANCE cAMP kit (Perkin Elmer). HEK293 cells stably expressing the hMC4R were treated with PAM compounds at doses indicated, then incubated with an Alexa Fluor 647-labeled antibody in stimulation buffer according to manufacturer's instructions for 30 min at RT. Next, α-MSH was added (at an EC20 dose or at doses indicated for concentration-response curves), and plates were incubated for 15 minutes at RT, followed by the addition of 10 μL of detection mix. Plates were then incubated for 30 minutes at RT and read on a Viewlux (Perkin Elmer) using 618 and 671 nm emission filters. IBMX was not included in the assay.

[4] = HEK293 cells stably expressing the hMC4R, α-MSH at an EC20 dose

Sequence of hMC4R (P32245 whole entry): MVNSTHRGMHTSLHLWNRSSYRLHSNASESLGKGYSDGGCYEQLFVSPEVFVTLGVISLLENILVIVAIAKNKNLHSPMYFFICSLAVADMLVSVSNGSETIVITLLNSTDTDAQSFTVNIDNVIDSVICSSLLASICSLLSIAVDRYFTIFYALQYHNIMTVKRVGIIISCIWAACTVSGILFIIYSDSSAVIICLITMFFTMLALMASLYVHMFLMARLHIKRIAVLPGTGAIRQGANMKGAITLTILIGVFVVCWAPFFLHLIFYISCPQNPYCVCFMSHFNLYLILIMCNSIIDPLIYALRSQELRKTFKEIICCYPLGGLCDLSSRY
Sequence of native L cell MC4R (P56450 whole entry): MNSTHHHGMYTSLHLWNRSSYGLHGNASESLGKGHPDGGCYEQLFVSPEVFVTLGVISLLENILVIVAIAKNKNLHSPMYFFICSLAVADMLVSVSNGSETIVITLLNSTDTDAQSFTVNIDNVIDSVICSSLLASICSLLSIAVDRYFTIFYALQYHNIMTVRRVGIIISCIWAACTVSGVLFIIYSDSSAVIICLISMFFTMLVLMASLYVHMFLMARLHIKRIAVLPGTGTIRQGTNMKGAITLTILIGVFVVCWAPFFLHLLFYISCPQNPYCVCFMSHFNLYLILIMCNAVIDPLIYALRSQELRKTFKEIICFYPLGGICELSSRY

Row | SMILES | hMC4R PAM LANCE pEC50 Mean [3, 4] | further results
1 | NC(=O)NCc1ccc(CNC(=O)[C@@H](CCCN=C(N)N)NC(=O)C(c2ccccc2)c2ccccc2)cc1 [BIBO3304, reference compound] | – | Effect of antagonist on PYY responses [1]: predictably abolished; Effect of antagonist on α-MSH inhibition of Isc potentiated by 1 μM Example 3 ([2]; α-MSH 300 nM): abolished
2 | N=C(N)NCCC[C@H](NC(=O)CC1(CC(=O)N2CCN(C3c4ccccc4NC(=O)c4ccccc43)CC2)CCCC1)C(=O)NCCn1c(=O)n(-c2ccccc2)n(-c2ccccc2)c1=O (some centres unmarked) [BIIE0246, reference compound] | – | Effect of antagonist on PYY responses [1]: predictably abolished; Effect of antagonist on α-MSH inhibition of Isc potentiated by 1 μM Example 3 ([2]; α-MSH 300 nM): abolished
3 | CC(C)(C)C1CCN(CC(=O)Nc2c(C(=O)C3CC3)[nH]c3ccccc23)CC1 [Example 1, 2-(4-(tert-butyl)piperidin-1-yl)-N-(2-(cyclopropanecarbonyl)-1H-indol-3-yl)acetamide] | 6.2 | pEC50 ([3]; in vitro characterisation): 6.40; Emax ([3]; in vitro characterisation, read-out: % of αMSH maximal response): 83%; Effect on PYY responses ([1]; Example 3 at 200 nM or 1 μM): unaffected; α-MSH response (inhibition of Isc) after pretreatment ([2]; 10 μM pretreatment, α-MSH 300 nM): potentiated significantly; Effect of compound alone on basal Isc ([2]; basolateral, Example 3 at 200 nM or 1 μM, vs vehicle): not significantly different to vehicle controls; MC4R PAM activity on α-MSH induced, PYY mediated short circuit current inhibition ([2]; mouse colonic epithelium): exhibited MC4R PAM activity
4 | CCOC(=O)c1[nH]c2ncccc2c1NC(=O)CN1CCCC(C)(C)C1 [Example 34] | 5.7 | –
5 | COC(=O)c1[nH]c2ccc(Br)cc2c1NC(=O)CN1CCN(Cc2ccccc2)CC1 [Example 35] | 5.8 | –
6 | COC(=O)c1[nH]c2ccc(Br)cc2c1NC(=O)CN1CCSCC1 [Example 36] | 5.8 | –
7 | O=C(CN1CCC(C2CCCCC2)CC1)Nc1c(C(=O)C2CC2)[nH]c2ccccc12 [Example 37] | 6.6 | –
8 | O=C(CN1CCC(C2CCCCC2)CC1)Nc1c(C(=O)C2CC2)[nH]c2ccc(Cl)cc12 [Example 38] | 6.6 | –
9 | COC(=O)c1[nH]c2ccc(Br)cc2c1NC(=O)CN1CCC(c2ccccc2)CC1 [Example 39] | 6.6 | –
10 | CC(=O)c1[nH]c2ccccc2c1NC(=O)CN1CCC(C2CCCC2)CC1 [Example 40] | 6.5 | –
11 | O=C(CN1CCC(C2CCCC2)CC1)Nc1c(C(=O)C2CC2)[nH]c2ccccc12 [Example 41] | 6.4 | –
12 | CC(=O)c1[nH]c2ccccc2c1NC(=O)CN1CCC(C2CCCCC2)CC1 [Example 42] | 6.5 | –
13 | CC(=O)c1[nH]c2ccc(Br)cc2c1NC(=O)CN1CCC(c2ccccc2)CC1 [Example 43] | 6.4 | –
14 | CC(=O)c1[nH]c2ccc(Br)cc2c1NC(=O)CN1CCC(Cc2ccccc2)CC1 [Example 44] | 6.4 | –
15 | COC(=O)c1[nH]c2ccccc2c1NC(=O)CN1CCC(N(C)c2ccccc2)CC1 [Example 45] | 6.3 | –
16 | COC(=O)c1[nH]c2ccc(Br)cc2c1NC(=O)CN1CCN(C2c3ccccc3-c3ccccc32)CC1 [Example 46] | 6.3 | hMC4R PAM LANCE Asym Max [3, 4]: 48
17 | COC(=O)c1[nH]c2ccc(Br)cc2c1NC(=O)CN1CCN(C(c2ccccc2)c2ccccc2)CC1 [Example 47] | 6.2 | –
18 | CC1(C)CCCN(CC(=O)Nc2c(C(=O)C3CC3)[nH]c3ccc(S(C)(=O)=O)cc23)C1 [Example 48] | 6.3 | –
19 | COC(=O)c1[nH]c2ccccc2c1NC(=O)CN1CCC(N2CCc3ccccc32)CC1 [Example 49] | 6.2 | –
20 | CC(C)=C1CCN(CC(=O)Nc2c(C(=O)C3CC3)[nH]c3ccccc23)CC1 [Example 50] | 6.1 | –
21 | CC(=O)c1[nH]c2ccc(Br)cc2c1NC(=O)CN1CCCC(C)(C)C1 [Example 51] | 6 | –
22 | CC(=O)c1[nH]c2ccccc2c1NC(=O)CN1CCC(Oc2ccccc2)CC1 [Example 52] | 5.9 | –
23 | CC1(C)CCCN(CC(=O)Nc2c(C(=O)C3CC3)[nH]c3ccc(N4CCOCC4)cc23)C1 [Example 53] | 5.7 | –
24 | O=C(CN1CCC(C2CC2)CC1)Nc1c(C(=O)C2CC2)[nH]c2ccccc12 [Example 54] | 6 | –
25 | COC(=O)c1[nH]c2ccccc2c1NC(=O)CN1CCC(Nc2ccccc2)CC1 [Example 55] | 5.8 | –

Row | SMILES | hMC4R PAM LANCE pEC50 Mean [3, 4] | further results
26 | O=C(CN1CCC(c2ccccc2)CC1)Nc1c(C(=O)C2CCC2)[nH]c2ccccc12 [Example 56] | 5.9 | –
27 | COC(=O)c1[nH]c2ccccc2c1NC(=O)CN1CCN(Cc2ccccc2)C(C)(C)C1 [Example 57] | 5.6 | –
28 | CS(=O)(=O)c1ccc2[nH]c(C(=O)C3CC3)c(NC(=O)CN3CCC(C4CCCCC4)CC3)c2c1 [Example 58] | 7.1 | –
29 | O=C(CN1CCC(C2CCCC2)CC1)Nc1c(C(=O)C2CC2)[nH]c2ccncc12 [Example 59] | 6.7 | –
30 | COC(=O)c1[nH]c2ccc(N3CCOCC3C)cc2c1NC(=O)CN1CCC(C2CCCCC2)CC1 (centres unmarked) [Example 60] | 6.7 | –
31 | COC(=O)c1[nH]c2ccc(N3CCOCC3)cc2c1NC(=O)CN1CCC(C2CCCCC2)CC1 [Example 61] | 6.6 | –
32 | O=C(CN1CCC(C2CCCCC2)CC1)Nc1c(C(=O)C2CC2)[nH]c2ccncc12 [Example 62] | 6.6 | –
33 | O=C(CN1CCC(C2CCCC2)CC1)Nc1c(C(=O)C2CC2)[nH]c2ccc(Cl)cc12 [Example 63] | 6.7 | –
34 | CC(=O)c1[nH]c2ccncc2c1NC(=O)CN1CCC(C2CCCC2)CC1 [Example 64] | 6.6 | –
35 | O=C(CN1CCC2(CCCCC2)CC1)Nc1c(C(=O)C2CC2)[nH]c2ccccc12 [Example 65] | 6.5 | –
36 | O=C(CN1CCC(C2CCCCC2)CC1)Nc1c(C(=O)C2CC2)[nH]c2ccc(N3CCOCC3)cc12 [Example 66] | 6.6 | –
37 | O=C(CN1CCC(c2ccccc2)CC1)Nc1c(C(=O)C2CC2)[nH]c2ccncc12 [Example 67] | 6.5 | –
38 | O=C(CN1CCC2(CCCC2)CC1)Nc1c(C(=O)C2CC2)[nH]c2ccncc12 [Example 68] | 6.4 | –
39 | O=C(CN1CCC(c2ccccc2)CC1)Nc1c(C(=O)C2CC2)[nH]c2ccc(N3CCOCC3)cc12 [Example 69] | 6.3 | –
40 | CC(=O)c1[nH]c2ccccc2c1NC(=O)C(C)N1CCC(C2CCCC2)CC1 (centres unmarked) [Example 70] | 6.4 | –
41 | CC(C(=O)Nc1c(C(=O)C2CC2)[nH]c2ccccc12)N1CCC(C2CCCC2)CC1 (centres unmarked) [Example 71] | 6.4 | –
42 | CC(=O)c1[nH]c2ccncc2c1NC(=O)CN1CCC(C(C)(C)C)CC1 [Example 72] | 6.3 | –
43 | O=C(CN1CCN(c2ccccc2)CC1)Nc1c(C(=O)C2CC2)[nH]c2ccncc12 [Example 73] | 6.2 | –
44 | CC1(C)CCCN(CC(=O)Nc2c(C(=O)C3CC3)[nH]c3ccncc23)C1 [Example 74] | 6.2 | –
45 | COC(=O)c1[nH]c2ccc(C)cc2c1NC(=O)CN1CCC(Cc2ccccc2)CC1 [Example 75] | 5.9 | –
46 | CC1COCCN1c1ccc2[nH]c(C(=O)C3CC3)c(NC(=O)CN3CCCC(C)(C)C3)c2c1 (centres unmarked) [Example 76] | 5.7 | –
47 | CC(=O)c1[nH]c2ccccc2c1NC(=O)CN1CCC(OC2CCCCC2)CC1 [Example 77] | 5.8 | –
48 | COC(=O)c1[nH]c2ccc(Cl)cc2c1NC(=O)C(C)N1CCC(Cc2ccccc2)CC1 (centres unmarked) [Example 78] | 6 | –
49 | COC(=O)c1[nH]c2ccc(Br)cc2c1NC(=O)CN1CCCC(C)(C)C1 [Example 79] | 6.1 | –
50 | COC(=O)c1[nH]c2ccc(Cl)cc2c1NC(=O)CN1CCCC(C)(C)C1 [Example 80] | 6 | –

Source: patent US10294214B2, “Positive allosteric modulators of human melanocortin-4 receptor” (Vanderbilt University, priority 2016, dated 2019)
